27 compounds from patent US8354414B2, “Substituted bicyclic pyrimidines” (Cephalon, Inc, priority 2006, dated 2013) can be followed below.

One experiment has as its target T1, His6-GSK-3β (Homo sapiens, UniProt P49841).
T1 construct: made in house; host or cells: Sf21 insect cells (baculovirus)
Put plainly: Inhibition of His6-GSK-3β kinase activity (ELISA-based format, time-resolved fluorescence readout). In kind it is biochemical. Particulars: for IC50: read-out: GSK3β IC50. Summed up: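 Plate-bound recombinant GST-Rb substrate was phosphorylated for 30 min at 37° C by baculovirus-expressed His6-GSK-3β (200 ng/ml) at 20 μM ATP, 10 mM MgCl2, 2.5% DMSO. Europium time-resolved fluorescence of anti-phospho-Ser780 Rb signal gave inhibition, fitted to IC50.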
(In general: An ELISA detects its analyte on a solid surface through an enzyme-linked reagent.)

In a further experiment the target is T2, CDK5/GST-p25 (Homo sapiens, UniProt Q00535).
T2 construct: The final construct, encoding for full-length human CDK5; made in house; host or cells: Sf21 insect cells (baculovirus co-infection)
Put plainly: Inhibition of CDK5/GST-p25 kinase activity (ELISA with time-resolved fluorescence readout). In kind it is biochemical. Summed up:
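The substrate, GST-Rb(773-928), was immobilised on plates and phosphorylated for 20 min at 37 °C by 2 ng/ml CDK5/GST-p25 in HEPES pH 7.2 with 10 µM ATP and 10 mM MgCl2. Both proteins were human and co-expressed in insect cells. Ser-780 phosphorylation was read by europium time-resolved fluorescence and converted to IC50.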

Structures are written as SMILES. Where a name gives a salt, the structure may show the parent alone. Read-outs that look alike come from different tables or passages of the source.

T1 sequence (P49841 2-419): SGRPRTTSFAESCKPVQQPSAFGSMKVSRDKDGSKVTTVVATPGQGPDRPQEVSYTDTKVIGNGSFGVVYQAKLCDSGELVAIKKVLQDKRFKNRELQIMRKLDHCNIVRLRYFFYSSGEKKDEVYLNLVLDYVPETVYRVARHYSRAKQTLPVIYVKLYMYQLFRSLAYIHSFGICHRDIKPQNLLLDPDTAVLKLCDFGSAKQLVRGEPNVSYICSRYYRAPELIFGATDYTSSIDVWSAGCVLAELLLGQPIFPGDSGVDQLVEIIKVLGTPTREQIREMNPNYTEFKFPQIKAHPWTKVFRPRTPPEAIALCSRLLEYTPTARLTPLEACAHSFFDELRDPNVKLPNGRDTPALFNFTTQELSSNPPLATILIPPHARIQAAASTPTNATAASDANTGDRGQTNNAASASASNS
T2 sequence (Q00535 whole entry): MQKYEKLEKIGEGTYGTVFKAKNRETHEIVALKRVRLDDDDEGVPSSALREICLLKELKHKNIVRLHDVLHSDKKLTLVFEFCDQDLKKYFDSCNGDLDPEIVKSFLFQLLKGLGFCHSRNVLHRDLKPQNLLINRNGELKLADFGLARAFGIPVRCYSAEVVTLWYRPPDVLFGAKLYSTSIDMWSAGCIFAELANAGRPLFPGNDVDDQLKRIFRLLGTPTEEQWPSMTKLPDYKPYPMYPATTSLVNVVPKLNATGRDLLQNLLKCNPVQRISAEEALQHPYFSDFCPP
T2 sequence (Q15078 108-307 partner limits assumed): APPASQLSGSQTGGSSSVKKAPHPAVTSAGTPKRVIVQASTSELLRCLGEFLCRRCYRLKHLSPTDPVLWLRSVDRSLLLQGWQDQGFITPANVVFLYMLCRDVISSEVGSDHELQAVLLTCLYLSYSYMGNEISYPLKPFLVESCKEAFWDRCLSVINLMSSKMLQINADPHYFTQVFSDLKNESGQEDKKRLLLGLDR

By IC50 is commonly meant the concentration that gives 50% inhibition. On to `O=C1Nc2ccc(Br)cc2C1c1nc(NCc2ccccn2)nc2nn(C3CCCC3)cc12` (stereo not drawn) [Example 179, 5-Bromo-3-{2-cyclopentyl-6-[(pyridin-2-ylmethyl)-amino]-2H-pyrazolo [3,4-d]pyrimidin-4-yl}-1,3-dihydro-1H-indol-2-one], for which the IC50 on His6-GSK-3β (class symbols) is < 300 nM; against CDK5/GST-p25 (class symbols), 300 to 3000 nM.
On to `CN(C)CCCNc1nc2c(c(C3C(=O)Nc4ccc(C#N)cc43)n1)CCC2` (stereo not drawn) [Example 342, 3-[2-(3-Dimethylamino-propylamino)-6,7-dihydro-5H-cyclopentapyrimidin-4-yl]-2-oxo-2,3-dihydro-1H-indole-5-carbonitrile], for which the IC50 at His6-GSK-3β (class symbols) and at CDK5/GST-p25 (class symbols) was 300 to 3000 nM throughout.
Consider `N#Cc1ccc2c(c1)C(c1nc(Nc3cccnc3)nc3c1CCC3)C(=O)N2` (stereo not drawn) [Example 350, 2-Oxo-3-[2-(pyridin-3-ylamino)-6,7-dihydro-5H-cyclopentapyrimidin-4-yl]-2,3-dihydro-1H-indole-5-carbonitrile], for which the half-inhibitory concentration (IC50) at His6-GSK-3β (class symbols) is 300 to 3000 nM; against CDK5/GST-p25 (numeric bounds), > 3000 nM.
On to `N#Cc1ccc2c(c1)C(c1nc(NCc3cccnc3)nc3nn(C4CCCC4)cc13)C(=O)N2` (stereo not drawn) [Example 133, 3-{2-cyclopentyl-6-[(pyridin-3-ylmethyl)amino]-2H-pyrazolo[3,4-d]pyrimidin-4-yl}-2-oxo-2,3-dihydro-1H-indole-5-carbonitrile], for which the IC50 at His6-GSK-3β (class symbols) and at CDK5/GST-p25 (class symbols) was < 300 nM in each case.
Turning to `CCCn1cc2c(C3C(=O)Nc4ccc(Br)cc43)nc(NC[C@H]3CCCO3)nc2n1` (stereo partly drawn) [Example 366, 5-Bromo-3-(2-propyl-6-{[(R)-1-(tetrahydro-furan-2-yl)methyl]-amino}-2H-pyrazolo[3,4-d]pyrimidin-4-yl)-1,3-dihydro-indol-2-one], the IC50 on His6-GSK-3β (class symbols) and on CDK5/GST-p25 (class symbols) was < 300 nM throughout.
In the case of `N#Cc1ccc2c(c1)C(c1nc(NCCc3ccccn3)nc3c1CCC3)C(=O)N2` (stereo not drawn) [Example 346, 2-Oxo-3-[2-(2-pyridin-2-yl-ethylamino)-6,7-dihydro-5H-cyclopentapyrimidin-4-yl]-2,3-dihydro-1H-indole-5-carbonitrile], the IC50 at His6-GSK-3β (class symbols) and on CDK5/GST-p25 (class symbols) was 300 to 3000 nM in each case.
On to `N#Cc1ccc2c(c1)C(c1nc(Nc3cccnc3)nc3nn(C4CCCC4)cc13)C(=O)N2` (stereo not drawn) [Example 169, 3-[2-Cyclopentyl-6-(pyridin-3-ylamino)-2H-pyrazolo [3,4-d]pyrimidin-4-yl]-2-oxo-2,3-dihydro-1H-indole-5-carbonitrile], for which the IC50 on His6-GSK-3β (class symbols) is < 300 nM; against CDK5/GST-p25 (class symbols), > 10000 nM.
The matching figures for `C[C@@H](O)CNc1nc(C2C(=O)Nc3ccc(Br)cc32)c2cn(C)nc2n1` (stereo partly drawn) [Example 358, 5-Bromo-3-[6-(2-(R)-hydroxy-propylamino)-2-methyl-2H-pyrazolo [3,4-d]pyrimidin-4-yl]-1,3-dihydroindol-2-one]: < 300 nM and < 300 nM.
Take `N#Cc1ccc2c(c1)C(c1nc(NCCc3ccncc3)nc3c1CCC3)C(=O)N2` (stereo not drawn) [Example 345, 2-Oxo-3-[2-(2-pyridin-4-yl-ethylamino)-6,7-dihydro-5H-cyclopentapyrimidin-4-yl]-2,3-dihydro-1H-indole-5-carbonitrile]: the “GSK3β % @10 μM” value at His6-GSK-3β (@10 μM) worked out at 67% @10 μM. For the same compound, the IC50 on CDK5/GST-p25 (class symbols) was > 10000 nM.
For the compound `CNCCNc1nc(C2C(=O)Nc3ccc(Br)cc32)c2cn(C)nc2n1` (stereo not drawn) [Example 360, 5-Bromo-3-[2-methyl-6-(2-methylamino-ethylamino)-2H-pyrazolo[3,4-d]pyrimidin-4-yl]-1,3-dihydro-indol-2-one hydrochloride salt], the IC50 at His6-GSK-3β (class symbols) and against CDK5/GST-p25 (class symbols) was 300 to 3000 nM each time.
On to `CC(C)Cn1cc2c(C3C(=O)Nc4ccc(Cl)cc43)nc(Cl)nc2n1` (stereo not drawn) [Example 273, 5-Chloro-3-(6-chloro-2-isobutyl-2H-pyrazolo [3,4-d]pyrimidin-4-yl)-1,3-dihydro-indol-2-one], for which the IC50 is > 3000 nM on His6-GSK-3β (numeric bounds) and > 10000 nM against CDK5/GST-p25 (class symbols).
Turning to `N#Cc1ccc2c(c1)C(c1nc(N3CCCC3)nc3nn(C4CCCC4)cc13)C(=O)N2` (stereo not drawn) [Example 132, 3-(2-cyclopentyl-6-pyrrolidin-1-yl-2H-pyrazolo [3,4-d]pyrimidin-4-yl)-2-oxo-2,3-dihydro-1H-indole-5-carbonitrile], the 50% inhibitory concentration (IC50) is < 300 nM on His6-GSK-3β (class symbols) and > 10000 nM on CDK5/GST-p25 (class symbols).
For the compound `CN(C)CCN1CCN(c2nc(C3C(=O)Nc4ccc(Cl)cc43)c3cn(C4CCCC4)nc3n2)CC1` (stereo not drawn) [Example 144, 5-Chloro-3-{2-cyclopentyl-6-[4-(2-dimethylamino-ethyl)-piperazin-1-yl]-2H-pyrazolo[3,4-d]pyrimidin-4-yl}-1,3-dihydro-indol-2-one], the IC50 at His6-GSK-3β (class symbols) was < 300 nM; on CDK5/GST-p25 (class symbols), > 10000 nM.
The matching figures for `O=C1Nc2ccc(Cl)cc2C1c1nc(NCc2ccc(Cl)nc2)nc2c1CCC2` (stereo not drawn) [Example 328, 5-Chloro-3-{2-[(6-chloro-pyridin-3-ylmethyl)-amino]-6,7-dihydro-5H-cyclopentapyrimidin-4-yl}-1,3-dihydro-indol-2-one]: > 10000 nM and > 10000 nM.
`N#Cc1ccc2c(c1)C(c1nc(N3CCN(CCc4ccccn4)CC3)nc3nn(C4CCCC4)cc13)C(=O)N2` (stereo not drawn) [Example 129, 3-{2-cyclopentyl-6-[4-(2-pyridin-2-yl-ethyl)-piperazin-1-yl]-2H-pyrazolo [3,4-d]pyrimidin-4-yl}-2-oxo-2,3-dihydro-1H-indole-5-carbonitrile]: the figures for the IC50 on His6-GSK-3β (class symbols) and on CDK5/GST-p25 (class symbols) were < 300 nM and > 10000 nM, respectively.
In the case of `N#Cc1ccc2c(c1)C(c1nc(NCCN3CCCC3)nc3nn(C4CCCC4)cc13)C(=O)N2` (stereo not drawn) [Example 136, 3-[2-cyclopentyl-6-(2-pyrrolidin-1-yl-ethylamino)-2H-pyrazolo[3,4-d]pyrimidin-4-yl]-2-oxo-2,3-dihydro-1H-indole-5-carbonitrile], the figures for the IC50 on His6-GSK-3β (class symbols) and on CDK5/GST-p25 (numeric bounds) were < 300 nM and > 3000 nM, respectively.
As to `N#Cc1ccc2c(c1)C(c1nc(NCCCN3CCCCC3)nc3nn(C4CCCC4)cc13)C(=O)N2` (stereo not drawn) [Example 170, 3[2-Cyclopentyl-6-(3-piperidin-1-yl-propylamino)-2H-pyrazolo[3,4-d]pyrimidin-4-yl]-2-oxo-2,3-dihydro-1H-indole-5-carbonitrile], the IC50 is < 300 nM at His6-GSK-3β (class symbols) and 300 to 3000 nM against CDK5/GST-p25 (class symbols).
As for `CN(C)CCOc1nc(C2C(=O)Nc3ccc(C#N)cc32)c2cn(C3CCCC3)nc2n1` (stereo not drawn) [Example 122, 3-[2-cyclopentyl-6-(2-dimethylamino-ethoxy)-2H-pyrazolo[3,4-d]pyrimidin-4-yl]-2-oxo-2,3-dihydro-1H-indole-5-carbonitrile], the IC50 at His6-GSK-3β (class symbols) is < 300 nM; against CDK5/GST-p25 (class symbols), > 10000 nM.
The matching figures for `CCCn1cc2c(C3C(=O)Nc4ccc(Br)cc43)nc(N[C@@H]3CCNC3)nc2n1` (stereo partly drawn) [Example 363]: 300 to 3000 nM and 300 to 3000 nM.
The matching figures for `N#Cc1ccc2c(c1)C(c1nc(NCCN3CCOCC3)nc3c1CCC3)C(=O)N2` (stereo not drawn) [Example 341, 3-[2-(2-Morpholin-4-yl-ethylamino)-6,7-dihydro-5H-cyclopentapyrimidin-4-yl]-2-oxo-2,3-dihydro-1H-indole-5-carbonitrile]: 300 to 3000 nM and 300 to 3000 nM.
The matching figures for `CCOCCn1cc2c(C3C(=O)Nc4ccc(Cl)cc43)nc(NCCc3cccnc3)nc2n1` (stereo not drawn) [Example 212, 5-Chloro-3-[2-(2-ethoxy-ethyl)-6-(2-pyridin-3-yl-ethylamino)-2H-pyrazolo [3,4-d]pyrimidin-4-yl]-1,3-dihydro-indol-2-one]: < 300 nM and < 300 nM.
Turning to `O=C1Nc2ccc(Cl)cc2C1c1nc(NCc2cccnc2)nc2c1CCC2` (stereo not drawn) [Example 327, 5-Chloro-3-{2-[(pyridin-3-ylmethyl)-amino]-6,7-dihydro-5H-cyclopentapyrimidin-4-yl}-1,3-dihydro-indol-2-one], the figures for the half-inhibitory concentration (IC50) at His6-GSK-3β (class symbols) and on CDK5/GST-p25 (numeric bounds) were 300 to 3000 nM and > 3000 nM, respectively.
Turning to `N#Cc1ccc2c(c1)C(c1nc(N3CCCCC3)nc3nn(C4CCCC4)cc13)C(=O)N2` (stereo not drawn) [Example 131, 3-(2-cyclopentyl-6-piperidin-1-yl-2H-pyrazolo[3,4-d]pyrimidin-4-yl)-2-oxo-2,3-dihydro-1H-indole-5-carbonitrile], the IC50 is < 300 nM at His6-GSK-3β (class symbols) and > 10000 nM on CDK5/GST-p25 (class symbols).
The matching figures for `CN(C)CCN(C)c1nc(C2C(=O)Nc3ccc(Cl)cc32)c2cn(C3CCCC3)nc2n1` (stereo not drawn) [Example 140, 5-Chloro-3-{2-cyclopentyl-6-[(2-dimethylamino-ethyl)-methyl-amino]-2H-pyrazolo[3,4-d]pyrimidin-4-yl}-1,3-dihydro-indol-2-one]: < 300 nM and > 10000 nM.
The matching figures for `N#Cc1ccc2c(c1)C(c1nc(Cl)nc3c1CCC3)C(=O)N2` (stereo not drawn) [Example 317, 3-(2-Chloro-6,7-dihydro-5H-cyclopentapyrimidin-4-yl)-2-oxo-2,3-dihydro-1H-indole-5-carbonitrile]: > 10000 nM and > 10000 nM.
The matching figures for `N#Cc1ccc2c(c1)C(c1nc(NCCN3CCOCC3)nc3nn(C4CCCC4)cc13)C(=O)N2` (stereo not drawn) [Example 177, 3-[2-Cyclopentyl-6-(2-morpholin-4-yl-ethylamino)-2H-pyrazolo[3,4-d]pyrimidin-4-yl]-2-oxo-2,3-dihydro-1H-indole-5-carbonitrile]: < 300 nM and < 300 nM.
Consider `CCCn1cc2c(C3C(=O)Nc4ccc(Br)cc43)nc(NC[C@@H]3CCCO3)nc2n1` (stereo partly drawn) [Example 367, 5-Bromo-3-(2-propyl-6-{[(S)-1-(tetrahydro-furan-2-yl)methyl]-amino}-2H-pyrazolo [3,4-d]pyrimidin-4-yl)-1,3-dihydro-indol-2-one], for which the IC50 at His6-GSK-3β (class symbols) and against CDK5/GST-p25 (class symbols) was < 300 nM throughout.
